Among the data in paper PMC11241330, “Development of a Radiolabeled Cyclin-Dependent Kinases 4 and 6 (CDK4/6) Inhibitor for Brain and Cancer PET Imaging” (International Journal of Molecular Sciences, 2024) are IC50 values, retold here.

The target in one experiment is T1, CDK6 (Homo sapiens, UniProt Q00534).
T1 construct: purified recombinant CDK6/CyclinD3; with CyclinD3
In words: luminescence kinase activity assay (BPS Bioscience CDK6/CyclinD3 kit #[…]). The experiment is classed as biochemical.

In a further experiment the target is T2, CDK4 (Homo sapiens, UniProt P11802).
T2 construct: purified recombinant CDK4/CyclinD3; with CyclinD3
In words: luminescence kinase activity assay (BPS Bioscience CDK4/CyclinD3 kit #[…]). The format is biochemical.

T2 sequence (P11802 2-303): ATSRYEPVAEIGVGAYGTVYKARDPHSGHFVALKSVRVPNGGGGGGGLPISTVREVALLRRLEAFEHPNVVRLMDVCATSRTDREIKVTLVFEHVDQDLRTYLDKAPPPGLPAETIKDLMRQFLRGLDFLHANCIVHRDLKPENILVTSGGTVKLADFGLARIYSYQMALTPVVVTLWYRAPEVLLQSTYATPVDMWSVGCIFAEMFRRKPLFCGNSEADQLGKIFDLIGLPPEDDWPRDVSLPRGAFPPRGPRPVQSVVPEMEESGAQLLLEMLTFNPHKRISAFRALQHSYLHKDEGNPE
T2 sequence (P30281 whole entry partner): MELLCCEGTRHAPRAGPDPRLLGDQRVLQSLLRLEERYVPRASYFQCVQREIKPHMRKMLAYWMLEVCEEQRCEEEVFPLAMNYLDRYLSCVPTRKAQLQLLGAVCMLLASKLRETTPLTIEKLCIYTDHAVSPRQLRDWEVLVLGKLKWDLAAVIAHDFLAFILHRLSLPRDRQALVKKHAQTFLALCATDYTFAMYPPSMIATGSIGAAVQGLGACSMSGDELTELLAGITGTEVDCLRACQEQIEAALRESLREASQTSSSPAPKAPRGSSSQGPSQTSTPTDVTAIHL
T1 sequence (Q00534 whole entry): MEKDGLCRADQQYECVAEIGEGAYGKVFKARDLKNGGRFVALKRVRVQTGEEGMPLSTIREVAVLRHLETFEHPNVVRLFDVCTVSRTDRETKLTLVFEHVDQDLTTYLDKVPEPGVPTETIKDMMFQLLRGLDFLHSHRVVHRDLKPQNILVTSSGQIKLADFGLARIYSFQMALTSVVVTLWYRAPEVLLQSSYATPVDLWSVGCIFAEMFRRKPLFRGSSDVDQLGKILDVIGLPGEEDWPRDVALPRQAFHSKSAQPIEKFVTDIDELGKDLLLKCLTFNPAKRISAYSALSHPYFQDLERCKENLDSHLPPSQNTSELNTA
T1 sequence (P30281 whole entry partner): as the sequence (P30281 whole entry partner) above

As to `CC(C)n1cnc2c(F)cc(-c3nc(Nc4ccc(CN5CCN(Cc6ccc(F)cc6)CC5)cn4)ncc3F)cc21` [NT431, 5-fluoro-4-(4-fluoro-1-isopropyl-1H-benzo[d]imidazol-6-yl)-N-(5-((4-(4-fluorobenzyl)piperazin-1-yl)methyl)pyridin-2-yl)pyrimidin-2-amine], the IC50 (as a rule, the point on the concentration scale where inhibition reaches its midpoint) was determined as 47.1 nM against CDK6 and 23.7 nM against CDK4.
